molecular target: NaV1.8 (Homo sapiens, UniProt Q9Y5Y9); assay: Activity against NaV 1.8 channel (Table 3), optical membrane potential / electrophysiology assays; assay type: cell-based
Description: Compounds of the invention are useful as antagonists of voltage-gated sodium ion channels. Antagonist properties of test compounds were assessed as follows. Cells expressing the NaV of interest were placed into microtiter plates. After an incubation period, the cells were stained with fluorescent dyes sensitive to the transmembrane potential. The test compounds were added to the microtiter plate. The cells were stimulated with either a chemical or electrical means ti evoke a NaV dependent membrane potential change from unblocked channels, which was detected and measured with trans-membrane potential-sensitive dyes. Antagonists were detected as a decreased membrane potential response to the stimulus. The optical membrane potential assay utilized voltage-sensitive FRET sensors described by Gonzalez and Tsien (See, Gonzalez, J. E. and R. Y. Tsien (1995) “Voltage sensing by fluorescence resonance energy transfer in single cells” Biophys J 69(4): 1272-80, and Gonzalez, J. E. and R. Y. Tsien (1997) “Improved indicators of cell membrane potential that use fluorescence resonance energy transfer” Chem Biol 4(4): 269-77) in combination with instrumentation for measuring fluorescence changes such as the Voltage/Ion Probe Reader (VIPR®) (See, Gonzalez, J. E., K. Oades, et al. (1999) “Cell-based assays and instrumentation for screening ion-channel targets” Drug Discov Today 4(9): 431-439).
The following is an example of how NaV1.3 inhibition activity is measured using the optical membrane potential method #2. Other subtypes are performed in an analogous mode in a cell line expressing the NaV of interest.
HEK293 cells stably expressing NaV1.3 are plated into 96-well microtiter plates. After an appropriate incubation period, the cells are stained with the voltage sensitive dyes CC2-DMPE/DiSBAC2(3) as follows.
2X CC2-DMPE=20 μM CC2-DMPE: 10 mM CC2-DMPE is vortexed with an equivalent volume of 10% pluronic, followed by vortexing in required amount of HBSS containing 10 mM HEPES. Each cell plate will require 5 mL of 2X CC2-DMPE. 50 μL of 2X CC2-DMPE is to wells containing washed cells, resulting in a 10 μM final staining concentration. The cells are stained for 30 minutes in the dark at RT.
2X DISBAC2(3) with ABSC1=6 μM DISBAC2(3) and 1 mM ABSC1: The required amount of 10 mM DISBAC2(3) is added to a 50 ml conical tube and mixed with 1 μL 10% pluronic for each mL of solution to be made and vortexed together. Then HBSS/HEPES is added to make up 2X solution. Finally, the ABSC1 is added.
The 2X DiSBAC2(3) solution can be used to solvate compound plates. Note that compound plates are made at 2X drug concentration. Wash stained plate again, leaving residual volume of 50 μL. Add 50 uL/well of the 2X DiSBAC2(3) w/ABSC1. Stain for 30 minutes in the dark at RT.
The electrical stimulation instrument and methods of use are described in ION Channel Assay Methods PCT/US01/21652, herein incorporated by reference. The instrument comprises a microtiter plate handler, an optical system for exciting the coumarin dye while simultaneously recording the coumarin and oxonol emissions, a waveform generator, a current- or voltage-controlled amplifier, and a device for inserting electrodes in well. Under integrated computer control, this instrument passes user-programmed electrical stimulus protocols to cells within the wells of the microtiter plate.
Assay Protocol • 1. Insert or use electrodes into each well to be assayed. • 2. Use the current-controlled amplifier to deliver stimulation wave pulses for 3 s. Two seconds of pre-stimulus recording are performed to obtain the un-stimulated intensities. Five seconds of post-stimulation recording are performed to examine the relaxation to the resting state.
Data are analyzed and reported as normalized ratios of background-subtracted emission intensities measured in the 460 nm and 580 nm channels. Background intensities are then subtracted from each assay channel. […]

Row | SMILES | IC50 [µM]
1 | CC(C)(C)c1ccc(C(=O)Nc2cccc(S(N)(=O)=O)c2)c(Oc2ccccc2)c1 [Compound 1] | < 2
2 | Cc1cc(Br)ccc1C(=O)Nc1cccc(S(N)(=O)=O)c1 [Compound 2] | > 10
3 | NS(=O)(=O)c1cccc(NC(=O)c2ccc(Cl)c(Cl)c2)c1 [Compound 3] | > 10
4 | NS(=O)(=O)c1cccc(NC(=O)c2ccccc2-n2cccc2)c1 [Compound 4] | > 10
5 | NS(=O)(=O)c1cccc(NC(=O)c2ccc(Cc3ccccc3)cc2)c1 [Compound 5] | > 10
6 | NS(=O)(=O)c1cccc(NC(=O)c2ccccc2Nc2cccc(F)c2)c1 [Compound 6] | > 10
7 | NS(=O)(=O)c1cccc(NC(=O)c2ccccc2Cc2ccccc2)c1 [Compound 7] | < 2
8 | NS(=O)(=O)c1cccc(NC(=O)c2ccc(C(F)(F)F)cc2)c1 [Compound 8] | > 10
9 | COc1ccc(C(=O)Nc2cccc(S(N)(=O)=O)c2)cc1OC [Compound 9] | > 10
10 | CC(C)c1ccc(C(=O)Nc2cccc(S(N)(=O)=O)c2)cc1 [Compound 10] | 2 to 10
11 | NS(=O)(=O)c1cccc(NC(=O)c2ccccc2-c2cccnc2)c1 [Compound 11] | > 10
12 | NS(=O)(=O)c1cccc(NC(=O)c2ccccc2COc2ccccc2)c1 [Compound 12] | 2 to 10
13 | NS(=O)(=O)c1cccc(NC(=O)c2ccc(Br)cc2)c1 [Compound 13] | > 10
14 | CNS(=O)(=O)c1cccc(NC(=O)c2ccc(C(C)(C)C)cc2)c1 [Compound 14] | 2 to 10
15 | NS(=O)(=O)c1cccc(NC(=O)c2cccc(Oc3ccccc3)c2)c1 [Compound 15] | 2 to 10
16 | NS(=O)(=O)c1cccc(NC(=O)c2ccccc2Oc2ccc(C(F)(F)F)cc2)c1 [Compound 16] | < 2
17 | NS(=O)(=O)c1cccc(NC(=O)c2ccccc2Nc2cccc(Oc3ccccc3)c2)c1 [Compound 17] | > 10
18 | NS(=O)(=O)c1cccc(NC(=O)c2cccc(C(=O)c3ccccc3)c2)c1 [Compound 18] | > 10
19 | NS(=O)(=O)c1cccc(NC(=O)c2ccc(-c3ncc[nH]3)cc2)c1 [Compound 19] | > 10
20 | NS(=O)(=O)c1cccc(NC(=O)c2ccccc2NC(=O)c2cccnc2)c1 [Compound 20] | > 10
21 | NS(=O)(=O)c1cccc(NC(=O)c2ccccc2Oc2ccccc2Cl)c1 [Compound 21] | < 2
22 | COc1ccc(C(=O)Nc2cccc(S(N)(=O)=O)c2)cc1 [Compound 22] | > 10
23 | COc1ccccc1Oc1ccccc1C(=O)Nc1cccc(S(N)(=O)=O)c1 [Compound 23] | < 2

The next lines start with the values.

Row | IC50 [µM] | SMILES
24 | > 10 | Cc1c(Cl)cc(NC(=O)c2ccc(C(C)(C)C)cc2)cc1S(N)(=O)=O [Compound 24]
25 | > 10 | Cc1cc(C)c(S(N)(=O)=O)cc1NC(=O)c1ccc(C(C)(C)C)cc1 [Compound 25]
26 | > 10 | CC(C)(C)c1cccc(Nc2ccccc2C(=O)Nc2cccc(S(N)(=O)=O)c2)c1 [Compound 26]
27 | 2 to 10 | NS(=O)(=O)c1cccc(NC(=O)c2ccccc2Nc2cccnc2)c1 [Compound 27]
28 | > 10 | CCc1ccc(C(=O)Nc2cccc(S(N)(=O)=O)c2)cc1 [Compound 28]
29 | > 10 | Cc1cc(Cl)ccc1C(=O)Nc1cccc(S(N)(=O)=O)c1 [Compound 29]
30 | > 10 | NS(=O)(=O)c1cccc(NC(=O)c2ccccc2OC(F)(F)F)c1 [Compound 30]
31 | > 10 | NS(=O)(=O)c1cccc(NC(=O)c2ccc(Cl)cc2)c1 [Compound 31]
32 | > 10 | NS(=O)(=O)c1cccc(NC(=O)c2ccc3c(c2)OCO3)c1 [Compound 32]
33 | > 10 | CN(C)c1ccc(C(=O)Nc2cccc(S(N)(=O)=O)c2)cc1 [Compound 33]
34 | > 10 | NS(=O)(=O)c1cccc(NC(=O)c2ccc(OC(F)(F)F)cc2)c1 [Compound 34, N-(3-(Aminosulfonyl)phenyl)-4-(trifluoromethoxy)benzamide]
35 | > 10 | NS(=O)(=O)c1cccc(NC(=O)c2cccc(C(F)(F)F)c2)c1 [Compound 35]
